Data taken from patent US9770421B2, “Uses for idebenone and related benzoquinones in metabolic disorders and other PPAR α/γ related diseases and conditions” (INDANIO BIOSCIENCE INC., priority 2013, dated 2017).
Entries after “also recorded” stand apart in the source; their conditions may differ.

Columns and labels:
[1] = system: diet-induced obese C57BL/6J male mice; experiment: Diet-induced-obese (DIO) mouse study; assay type: in vivo
Protocol: Mouse-based biomedical research was performed by the Jackson Laboratory to test the efficacy of idebenone in a diet-induced-obese (DIO) mouse model and approved by the Institutional Animal Care and Use Committee (IACUC). To test the efficacy of idebenone in a db/db mouse model experiments were performed at the Univerity of Torotno and were approved by the Animal Care Committee at the University of Toronto.
DIO study: Forty four (44) diet-induced obese C57BL/6J male mice (started on high fat diet at the age of 6 weeks) were used at 16 wks of age. The mice were ear notched for identification using the standard mouse ID format. Mice were housed at a density of 3-4 per cage in polycarbonate cages, which were both individually and positively ventilated. Bed-o'Cobs® corn cob bedding was provided and was changed every two weeks or as needed.
The animal room was lighted entirely with artificial fluorescent lighting on controlled 12 hr light/dark cycle (6 a.m. to 6 p.m. light). The normal temperature and relative humidity ranges in the animal rooms were maintained at 22±4° C. and 50±15%, respectively. The animal room was set for 15 air exchanges per hour. Filtered tap water acidified to a pH of 2.5 to 3.1 was provided ad libitum. High fat diet (60 kcal %) was provided ad libitum. Following a 2 week acclimation, 32 mice were chosen based on desired body weight range. Remaining mice were euthanized. Mice were randomized by body weight into four treatment groups (n=8) by body weight and non-fasting blood glucose taken three days prior to the start of dosing. Body weights, non-fasting blood glucose, and insulin were measured before dosing. Dosing occurred for 5 days. Fasting blood glucose and insulin were measured at the end of dosing (mice were fasted overnight on day 5, and insulin and blood glucose was measured on day 6). Mice were euthanized by CO2 euthanasia. An aliquot of whole blood was processed to measure insulin.

PPARα LBD = target: T1, PPARα LBD (Homo sapiens, UniProt Q07869); experiment: In vitro co-purification with His-tagged PPARα LBD, MS; assay type: binding; details: incubated with 10 μM idebenone
T1 construct: His-tagged PPARα, δ and γ LBDs were expressed in bacteria, Ni-NTA purified; His; made in house; host or cells: bacteria (E. coli)
T1 sequence (Q07869 239-466 limits assumed): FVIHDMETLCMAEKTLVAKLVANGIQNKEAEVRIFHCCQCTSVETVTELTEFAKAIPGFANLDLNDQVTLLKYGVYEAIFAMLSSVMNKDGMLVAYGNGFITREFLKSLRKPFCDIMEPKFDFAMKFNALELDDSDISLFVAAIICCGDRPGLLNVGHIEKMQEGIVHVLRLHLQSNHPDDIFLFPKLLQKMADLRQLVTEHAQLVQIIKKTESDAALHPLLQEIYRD
Protocol: To see if idebenone can bind to directly to other PPAR LBDs, His-tagged PPARα, δ and γ LBDs were expressed in bacteria, Ni-NTA purified and incubated with 10 μM idebenone. After several washes in a 10 kDa cut off Amicon centrifuge filter (Millipore), lipids were extracted and analyzed by MS.

3T3-L1 cells = experiment: Murine 3T3-L1 adipocyte differentiation assay (Oil Red O); assay type: cell-based; details: with dexamethasone, isobutylmethylxanthine and insulin; Oil Red O staining
Protocol: The cell line was originally obtained from ATCC and 3T3-L1 cells were maintained in the fibroblasts stage in DMEM (Gibco: 11995-065), 10% FBS (Gibco: 26140-079) and Pen-Strep solution (Gibco: 15140-122). Cells were grown in 75 cm^2 flasks and sub-cultured just prior to confluence. Medium was removed and washed twice with PBS. For cell differentiation 2 day post-confluent monolayers were incubated for 2 days in DMEM containing: 10% fetal bovine serum (FBS), 100 μg/ml IBMX (from a 500× stock in 0.15 M KOH, prepared fresh), 390 ng/ml dexamethasone (from a 1000× stock in EtOH) and 5 μg/ml insulin (from a 1000× stock in 0.1 M HCl). After 2 days media was replaced with DMEM+ 10% FBS and 5 μg insulin only and cells were maintained for another 2 days. Media was then replaced by DMEM+ 10% FBS for 5-6 days until differentiation was complete. After differentiation media was removed and cells were washed twice with PBS and then fixed in 4% PFA. Lipids were stained with Oil O red.

[2] = target: T2, human PPARγ LBD (residues 206-477) (Homo sapiens, UniProt P37231); experiment: Stargazer thermostabilization assay; assay type: binding; details: 0.2 mg/ml PPARγ LBD, heated to 80° C.
T2 construct: human PPARγ LBD (residues 206-477), expressed in pRSET; His tag (implied by Ni-NTA purification and the pRSET vector); made in house; host or cells: E. coli BL21 codon plus (pRSET)
T2 sequence (P37231 206-477 isoform P37231-2): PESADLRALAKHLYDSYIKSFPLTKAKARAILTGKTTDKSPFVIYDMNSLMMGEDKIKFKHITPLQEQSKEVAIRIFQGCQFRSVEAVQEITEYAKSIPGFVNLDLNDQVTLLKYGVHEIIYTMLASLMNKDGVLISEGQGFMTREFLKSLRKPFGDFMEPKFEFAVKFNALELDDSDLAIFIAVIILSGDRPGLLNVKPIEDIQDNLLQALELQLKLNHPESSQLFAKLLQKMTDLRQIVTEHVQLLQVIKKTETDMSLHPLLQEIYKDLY

[3] = system: GFP-expressing leukocytes recruited in response to CuSO4; experiment: Zebrafish inflammation assay (CuSO4); assay type: in vivo
Protocol: Assay was performed as described in [47]. Fifteen dechorionated 55 hpf (hours post fertilization) embryos were transferred in each well of 6-well plates in 6 ml of embryo water. Idebenone was added at increasing concentrations (0.25, 0.75, 1.5, 3 and 5 μM). Embryos were incubated in the dark for 1 hr at 28 C, followed by a second 40 min incubation with copper sulfate (CuSO4) at a final concentration of 10 μM at 28 C in the dark. Embryos were then transferred to Eppendorf tubes and fixed in 4% paraformaldehyde in 1×PBS overnight at 4 C in the dark. Numbers of GFP+ cells were counted along the lateral line/neuromast clusters.
Previous studies have shown that PPAR agonists have anti-inflammatory properties, and can be used to treat a variety of inflammatory responses. To test if this is also true for idebenone, we used a zebrafish model of inflammation. Exposure of fish larvae to copper sulfate causes non-invasive damage to neuromast cells, which form external clusters along the lateral midline. This inflammation can be visualized via the recruitment of GFP-expressing leukocytes. As expected, this recruitment of GFP positive cells could be alleviated by addition of the known anti-inflammatory agent ibuprofen (FIG. 11).

[4] = gavage twice daily for 5 days, 50 mpk idebenone, 30 mpk rosiglitazone

- Binding to PPARα LBD (co-purification, MS) (PPARα LBD): strong binding
- Shift of thermal denaturation transition temperature [2]: 5.5 °C
SMILES: COC1=C(OC)C(=O)C(CCCCCCCCCCO)=C(C)C1=O [Idebenone, 2-(10-hydroxydecyl)-5,6-dimethoxy-3-methyl-2,5-cyclohexadiene-1,4-dione]
- Insulin resistance (HOMA-IR) ([1]; 50 mpk idebenone twice daily for 5 days): clear improvement
- Blood glucose levels [1, 4]: trend towards lowered blood glucose levels; also recorded: lowers
- Fasting insulin levels [1, 4]: reduction in fasting insulin levels; also recorded: lowers
- Lipid accumulation / adipocyte differentiation (3T3-L1 cells): does not stimulate adipocyte differentiation and activity; also recorded: no accumulation of lipid
- Recruitment of GFP positive leukocytes (anti-inflammatory activity) ([3]; 10 μM CuSO4, 55 hpf embryos): robust anti-inflammatory agent; also recorded: anti-inflammatory activity
- Concentration at which anti-inflammatory activity is detectable ([3]; idebenone 0.25-5 μM tested): sub micromolar
